pIC50: −log10 of the molar value. Read-outs that look alike come from different tables or passages of the source.
Legend:
[1] = target: Recombinant human Bcl-2 protein (Homo sapiens (Human), UniProt P10415); assay: Bcl-2 TR-FRET Assay; assay type: binding
How it was run: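 0.05 nM recombinant Bcl-2 preincubated 0.5 h at room temperature with 10-point compound dilutions (top final 1, 0.1, 0.02 or 0.01 uM) in pH 7.5 phosphate buffer. FITC-Bak peptide (0.5 nM) and anti-6His Tb cryptate then added for 1 h. TR-FRET read; IC50 from four-parameter logistic fit.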

[2] = target: recombinant human Bcl-2 D103Y protein (Homo sapiens (Human), UniProt P10415, D103Y); assay: Bcl-2-D103Y Biochemical Assay (TR-FRET); assay type: binding; settings: for pIC50: TR-FRET, FITC labeled Bak peptide; for Ratio of Bcl-2 D103Y/Bcl-2 WT: ratio of IC50; for ratio of Bcl-2 D103Y/Bcl-2 wt, compared with F91b in WO2019210828: comparison in words
How it was run: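 Recombinant human Bcl-2 D103Y binding to its ligand measured by TR-FRET (ex 337 nm, em 490/520 nm) with increasing compound concentrations. Percent inhibition from the 490/520 nm ratio; IC50 from four-parameter logistic fit.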

[3] = target: recombinant human Bcl-2-G101V protein (Homo sapiens (Human), UniProt P10415, G101V); assay: Bcl-2-G101V TR-FRET Assay; assay type: binding; settings: Bcl-2 G101V mutant, TR-FRET; read-out: Biochemical assay (IC50, nM) Bcl-2 G101V
How it was run: (§1)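 Ex337/em490 & 520 nm TR-FRET; % inhibition of Bcl-2-G101V–ligand interaction from 490:520 ratio vs. increasing compound conc.; IC50 by 4-parameter logistic fit.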

[4] = tested on: recombinant human Bcl-2-G101V protein; assay: Bcl-2-G101V TR-FRET Assay; assay type: binding; settings: for Ratio of Bcl-2 G101V/WT: ratio of biochemical IC50 Bcl-2 G101V / Bcl-2 WT
How it was run: as §1

[5] = tested on: RS4;11 (BCL-2 dependent acute lymphoblastic leukemia cell line); assay: RS4;11 Cell Proliferation Assay; assay type: cell-based; settings: Homo sapiens, RS4-11, RS4;11 cells, read-out: Cellular proliferation assay (IC50, nM) RS4
How it was run: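 RS4;11 cells, 50,000 per well in RPMI-1640 with 10% FBS, treated 48 h at 37 °C with a 10-point dilution series topping at 1 μM. Viability read by CellTiter-Glo ATP luminescence; mean IC50 reported.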

[6] = tested on: BCL-2 G101V knock-in cell line H96 (derive from RS4;11); assay: Bcl 2-G101V Knock-In RS4;11 Cell Proliferation Assay; assay type: cell-based; settings: Homo sapiens, RS4;11 Bcl-2 G101V knock-in clone H96, 48 hrs, CellTiter-GLO, read-out: Cellular proliferation assay (IC50, nM) RS4
How it was run: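 H96, a CRISPR-generated RS4;11 clone carrying BCL2-G101V knock-in (WES/RNA-seq validated), seeded 50,000 per well and exposed 48 h at 37 °C to 10-point dilutions topping at 1 or 10 μM. Viability by CellTiter-Glo luminescence; mean IC50.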

[7] = Bcl-2 wild type, TR-FRET, read-out: Biochemical assay (IC50, nM) Bcl-2 WT
[8] = wild type Bcl-2, unit inferred, read-out: Bcl-2 WT

Row | Structure (SMILES) | IC50 [1, 7] [nM] | IC50 [1, 8] [nM] | pIC50 [2] | Ratio of Bcl-2 D103Y/Bcl-2 WT [2] | IC50 [3] [nM] | Ratio of Bcl-2 G101V/WT [4] | IC50 [5] [nM] | IC50 [6] [nM] | ratio of Bcl-2 D103Y/Bcl-2 wt, compared with F91b in WO2019210828 [2] | ratio of IC50 of Bcl-2 G101V/Bcl-2 wt, compared with Example F132b in WO2019210828 and ABT-199 (venetoclax) ([4]; comparison in words)
1 | COc1ccc(CN2CCN(C3CC4(CCN(c5ccc(C(=O)NS(=O)(=O)c6ccc(NC[C@H]7CC[C@](C)(O)CC7)c([N+](=O)[O-])c6)c(Oc6cnc7[nH]ccc7c6)c5)CC4)C3)[C@@H](c3ccccc3C(C)C)C2)cc1 [Example 19b, 2-((1H-pyrrolo[2,3-b]pyridin-5-yl)oxy)-N-((4-((((1r,4r)-4-hydroxy-4-methylcyclohexyl)methyl)amino)-3-nitrophenyl)sulfonyl)-4-(2-((S)-2-(2-isopropylphenyl)-4-(4-methoxybenzyl)piperazin-1-yl)-7-azaspiro[3.5]nonan-7-yl)benzamide] | 0.16 | 0.16 | 7.80 | 100 | 10 | 62.5 | 6.8 | 44 | – | –
2 | COc1cc(CN2CCN(C3CC4(C3)CN(c3ccc(C(=O)NS(=O)(=O)c5ccc(NC[C@H]6CC[C@](C)(O)CC6)c([N+](=O)[O-])c5)c(Oc5cnc6[nH]ccc6c5)c3)C4)[C@H](c3ccccc3C(C)C)C2)ccc1OC1CC1 [Example 343, 2-((1H-pyrrolo[2,3-b]pyridin-5-yl)oxy)-4-(6-((R)-4-(4-cyclopropoxy-3-methoxybenzyl)-2-(2-isopropylphenyl)piperazin-1-yl)-2-azaspiro[3.3]heptan-2-yl)-N-((4-((((1r,4r)-4-hydroxy-4-methylcyclohexyl)methyl)amino)-3-nitrophenyl)sulfonyl)benzamide] | 0.11 | 0.11 | 10.05 | 0.8 | 0.3 | 2.7 | 0.11 | 0.25 | – | –
3 | COc1ccc(CN2CCN(C3CC4(CCN(c5ccc(C(=O)NS(=O)(=O)c6ccc(NC[C@H]7CC[C@](C)(O)CC7)c([N+](=O)[O-])c6)c(Oc6cnc7[nH]ccc7c6)c5)CC4)C3)C(c3ccccc3C(C)C)C2)cc1C (stereo partly shown) [Example 144, 2-((1H-pyrrolo[2,3-b]pyridin-5-yl)oxy)-N-((4-((((1r,4r)-4-hydroxy-4-methylcyclohexyl)methyl)amino)-3-nitrophenyl)sulfonyl)-4-(2-(2-(2-isopropylphenyl)-4-(4-methoxy-3-methylbenzyl)piperazin-1-yl)-7-azaspiro[3.5]nonan-7-yl)benzamide] | 0.26 | 0.26 | 9.33 | 1.8 | 1.1 | 4.1 | 0.463 | 2.8 | – | –
4 | CC(C)c1ccccc1C1CN(Cc2cccc3sccc23)CCN1C1CC2(CCN(c3ccc(C(=O)NS(=O)(=O)c4ccc(NC[C@H]5CC[C@](C)(O)CC5)c([N+](=O)[O-])c4)c(Oc4cnc5[nH]ccc5c4)c3)CC2)C1 (stereo partly shown) [Example 59, 2-((1H-pyrrolo[2,3-b]pyridin-5-yl)oxy)-4-(2-(4-(benzo[b]thiophen-4-ylmethyl)-2-(2-isopropylphenyl)piperazin-1-yl)-7-azaspiro[3.5]nonan-7-yl)-N-((4-((((1r,4r)-4-hydroxy-4-methylcyclohexyl)methyl)amino)-3-nitrophenyl)sulfonyl)benzamide] | 0.73 | 0.73 | 8.49 | 4.4 | 3 | 4.1 | 0.8 | 10.4 | significantly lower | –
5 | COc1ccc(CN2CCN(C3CC4(CCN(c5ccc(C(=O)NS(=O)(=O)c6ccc(NC[C@H]7CC[C@](C)(O)CC7)c([N+](=O)[O-])c6)c(Oc6cnc7[nH]ccc7c6)c5)CC4)C3)C(c3ccccc3C(C)C)C2)nc1OC (stereo partly shown) [Example 194, 2-((1H-pyrrolo[2,3-b]pyridin-5-yl)oxy)-4-(2-(4-((5,6-dimethoxypyridin-2-yl)methyl)-2-(2-isopropylphenyl)piperazin-1-yl)-7-azaspiro[3.5]nonan-7-yl)-N-((4-((((1r,4r)-4-hydroxy-4-methylcyclohexyl)methyl)amino)-3-nitrophenyl)sulfonyl)benzamide] | 0.051 | 0.051 | 10.14 | 1.4 | 0.16 | 3.1 | 0.3 | 0.82 | – | –
6 | COc1cccc(CN2CCN(C3CC4(CCN(c5ccc(C(=O)NS(=O)(=O)c6cc7c(c([N+](=O)[O-])c6)N[C@H](C[C@H]6CC[C@H](O)CC6)CO7)c(Oc6cnc7[nH]ccc7c6)c5)CC4)C3)C(c3ccccc3C(C)C)C2)c1 (stereo partly shown) [Example 45] | 0.24 | 0.24 | 9.27 | 2.3 | 0.95 | 4.0 | 0.41 | 3.29 | – | –
7 | CC(C)c1ccccc1C1CN(Cc2ccc3c(c2)CCCO3)CCN1C1CC2(CCN(c3ccc(C(=O)NS(=O)(=O)c4ccc(NC[C@H]5CC[C@](C)(O)CC5)c([N+](=O)[O-])c4)c(Oc4cnc5[nH]ccc5c4)c3)CC2)C1 (stereo partly shown) [Example 53, 2-((1H-pyrrolo[2,3-b]pyridin-5-yl)oxy)-4-(2-(4-(chroman-6-ylmethyl)-2-(2-isopropylphenyl)piperazin-1-yl)-7-azaspiro[3.5]nonan-7-yl)-N-((4-((((1r,4r)-4-hydroxy-4-methylcyclohexyl)methyl)amino)-3-nitrophenyl)sulfonyl)benzamide] | 0.17 | 0.17 | 9.42 | 2.2 | 0.6 | 3.5 | 0.47 | 3.1 | – | –
8 | COc1cc(CN2CCN(C3CC4(C3)CN(c3ccc(C(=O)NS(=O)(=O)c5ccc(NC[C@H]6CC[C@](C)(O)CC6)c([N+](=O)[O-])c5)c(Oc5cnc6[nH]cc(F)c6c5)c3)C4)[C@H](c3ccccc3C(C)C)C2)ccc1OC1CCC1 [Example 350, 4-(6-((R)-4-(4-cyclobutoxy-3-methoxybenzyl)-2-(2-isopropylphenyl)piperazin-1-yl)-2-azaspiro[3.3]heptan-2-yl)-2-((3-fluoro-1H-pyrrolo[2,3-b]pyridin-5-yl)oxy)-N-((4-((((1r,4r)-4-hydroxy-4-methylcyclohexyl)methyl)amino)-3-nitrophenyl)sulfonyl) benzamide] | 0.48 | 0.48 | 9.19 | 1.4 | 0.99 | 2.2 | 0.23 | 0.79 | – | –
9 | COc1cc(CN2CCN(C3CC4(C3)CN(c3ccc(C(=O)NS(=O)(=O)c5ccc(NC[C@H]6CC[C@](C)(O)CC6)c([N+](=O)[O-])c5)c(Oc5cnc6[nH]cc(F)c6c5)c3)C4)[C@H](c3ccccc3C(C)C)C2)ccc1C1CCOCC1 [Example 367] | 0.35 | – | 9.40 | 1.2 | 0.9 | 2.6 | 0.11 | 0.3 | – | –
10 | CC(C)c1ccccc1C1CN(Cc2ccccc2)CCN1C1CC2(CCN(c3ccc(C(=O)NS(=O)(=O)c4ccc(NC[C@H]5CC[C@](C)(O)CC5)c([N+](=O)[O-])c4)c(Oc4cnc5[nH]ccc5c4)c3)CC2)C1 (stereo partly shown) [Example 23, 2-((1H-pyrrolo[2,3-b]pyridin-5-yl)oxy)-4-(2-(4-benzyl-2-(2-isopropylphenyl)piperazin-1-yl)-7-azaspiro[3.5]nonan-7-yl)-N-((4-((((1r,4r)-4-hydroxy-4-methylcyclohexyl)methyl)amino)-3-nitrophenyl)sulfonyl)benzamide] | 0.45 | 0.13 | 9.59 | 2 | 2.1 | 4.7 | 0.39 | 2.66 | significantly lower | much lower

Source: US20240376097A1, “BCL-2 Inhibitor” (BeiGene Ltd., priority 2020, published 2024)
